Experiment: Release of nitric oxide depending on pH (Sievers NOA nitric oxide detector)
Type: physicochemical
Conditions: 1 mg in 40 ml DPBS, pH 7.4 (FIG. 8)
Protocol: FIGS. 8 to 10 illustrate results obtained using a nitric oxide detector (Sievers NOA, GE analytical instruments, USA) in order to confirm a nitric oxide release behavior of the synthesized CaP—NO depending on the change in pH. FIG. 8 illustrates a result of observing the nitric oxide release behavior after adding 1 mg of AEATS to 40 ml of Dulbecco's Phosphate-Buffered Saline (DPBS, pH 7.4). […] FIG. 9 illustrates a result of confirming a nitric oxide release behavior of CaP—NO depending on a change in pH. […] When the pH was increased to 7.4 again, nitric oxide was not released, and as a result of observing the nitric oxide release behavior while repeatedly changing the pH, it was confirmed that when the pH was 5, nitric oxide was released.

CO[Si](CCCNCCN)(OC)OC [AEATS, N-(2-aminoethyl)-3-aminopropyl trimethoxysilane]
nitric oxide release behavior: a large amount of nitric oxide was released

Reference: patent US10301332B2, “Method of selectively releasing nitric oxide depending on change in pH using calcium phosphate” (INSTITUTE FOR BASIC SCIENCE, priority 2015, dated 2019)
